# Laboratory results taken from patent publication US11571413B2, “Nicotinamide riboside treatments of domesticated meat animals” (Kansas State University Research Foundation, priority 2017, dated 2023).
# Columns and labels:
# growing pigs [1] = test: Oral NR for 7 days in growing pigs: average daily gain and loin eye area (Example III); type: in vivo, pig
# Method: (§1) Nine growing pigs were blocked by bodyweight (BW) and placed in metabolism crates. After a 3-day acclimation period, pigs within each BW block were randomly assigned to a treatment (n=3 pigs/treatment). Treatments comprised pigs supplemented 0, 15, or 30 mg/kg BW NR for 7 days. Pigs were allowed ad libitum access to a standard growing diet and water. Treatments were administered daily at 8 a.m. by mixing NR in 20 mL of Karo® dark syrup and orally drenching the pigs. On day 0 and 3 of the trial, muscle biopsies of the LL were taken for NAD+ analysis using standard procedures. At day 7, pigs were transported to the Kansas State University Meats Laboratory and euthanized by a captive penetrating bolt to the brain, followed by exsanguination. Following harvest procedures, 3 g of the LL were collected for NAD+ analysis. Twenty-four hours after harvest, the whole LL not sampled at harvest was removed from the carcass and aged 10 days. After aging, the LL was cut into 6 chops for retail color stability analysis, including 6-day surface oxy- and metmyoglobin percentage, 6-day objective and subjective color panel evaluation, and day 4 and 6 metmyoglobin reducing ability (MRA).
# growing pigs [2] = test: Longissimus lumborum chop retail color stability, 6-day display (Example III); type: in vivo, pig; details: for Greater discoloration score of 0 mg/kg chops than NR chops: day 6 of display
# Method: as §1
# finished market barrows = test: Performance test to subjective fatigue (Example V); type: in vivo, pig; details: 30 mg/kg BW oral daily; performance test on day 7, 0.88 m/s
# Method: Fourteen days prior to harvest, 20 finished market barrows (initial body weight 268 pounds) were randomly assigned to 1 of 2 treatments: 0 or 30 mg/kg body weight of nicotinamide riboside, both orally administered daily in 20 ml of Karo® Syrup. Ten days prior to harvest, pigs were restrained via a snare and treatments were administered. On day 7, barrows were subjected to a performance test where they were walked around a track at 0.88 m/s until subjective fatigue was achieved. Three days following the performance test, barrows were harvested and a portion of the semitendinosus muscle was collected within 45 minutes. These samples were analyzed for NAD+ content via HPLC methodology.
# [3] = test system: Fertilized broiler eggs (Cobb 500); test: Pectoralis major muscle fiber CSA and density by immunohistochemistry (Example VI); type: in vivo, chicken; details: hatched chicks
# Method: The methods of Noel et al. (2016) were followed for immunohistochemistry with modifications. The PM was removed from the tongue depressor, embedded in tissue embedding media (Fisher Scientific), cooled with isopentane chilled liquid nitrogen, and stored at −80° C. until cryosectioning. Ten micrometer-thick cryosections were cut using a Microm 550 cryostat (Thermo Fisher Scientific, Kalamazoo, Mich.) and six cryosection were collected on positively charged slides (Diamond White Glass; Globe Scientific Inc., Paramus, N.J.). Cryosections were incubated in a blocking solution containing 5% horse serum and 0.2% TritonX-100 in Phosphate Buffered Saline (PBS) for 30 min. Slides were incubated for 1 h at room temperature in a primary antibody solution consisting of blocking solution and 1:500 rabbit, α-dystrophin (Thermo Fisher Scientific). Cryosections were washed 3 times for 5 min each in PBS and incubated for an additional 30 min with blocking solution containing 1:1,000 Alexa-Flour 594 goat-anti-rabbit heavy and light chains (Life Technologies, Carlsbad, Calif.). Cryosections were washed again as stated above, 5 μl of 9:1 glycerol in PBS was placed on each section, and slides were coverslipped for imaging. Cryosections were visualized at 200× magnification using a Nikon Elipse TI-U inverted microscope (Nikon Instruments Inc., Melville, N.Y.), a Nikon DS-QiMC digital camera (Nikon Instruments Inc.) was used to photograph cryosections, and an average of 1,000 fibers were analyzed using NIS-Elements imaging software (Basic Research, 3.3; Nikon Instruments Inc.) to determine fiber cross-section area (CSA).
# [4] = test system: Fertilized Cobb 500 broiler eggs; test: Pectoralis major muscle fiber morphometrics and satellite cell content (second Example VI); type: in vivo, chicken
# Method: The methods of Gonzalez and Jackson (2020) were followed for immunohistochemistry analysis. On 2 separate slides, 6 cryosections (10 μm thick) were collected on positively charged slides (Diamond White Glass; Globe Scientific Inc., Paramus, N.J.). Cryosections were incubated in 5% horse serum and 0.2% TritonX-100 in phosphate buffered saline (PBS) for 30 min to block all nonspecific binding sites. Cryosections were incubated for 16 h at 4° C. with a primary antibody solution comprising blocking solution and 1:500 rabbit α-dystrophin (Thermo Scientific, Waltham, Mass.) and 1:2 […] α-Pax7 antibody (Developmental Studies Hybridoma Bank, Iowa City, Iowa). Cryosections were washed 3 times for 5 min with PBS and incubated for 30 min with 1:1,000 Alexa-Flour 594 goat-anti-rabbit H&L (Life Technologies, Carlsbad, Calif.), 1:1000 Alexa-Flour 488 chicken-anti-mouse IgG1 (Life Technologies), and 1:1,000 Hoescht Dye 33342 (Life technologies) secondary antibodies in blocking solution. After washing in PBS 3 times for 5 min, 5 μL of 9:1 glycerol in PBS was placed on each cryosection and slides were coverslipped for imaging. All cryosections were imaged at 200× magnification using a Nikon Eclipse TI-U inverted microscope (Nikon Instruments Inc., Melville, N.Y.). Immunohistochemistry photomicrographs were collected with a DS-QiMC digital camera (Nikon Instruments Inc.) and SDH cryosections were collected with a Nikon DS-Fil color digital camera (Nikon Instruments Inc.) White light intensity was kept constant for SDH photomicrographs. All photomicrograph collection and image analyses were conducted using NIS Elements Basic Software (Nikon Instruments Inc.). Cross-sectional area (CSA) of a minimum of 1,000 muscle fibers per chick was determined as the area within the dystrophin border. The number of satellite cell was determined as nuclei co-staining for Pax 7 and Hoechst dye located at the periphery of muscle fiber. A minimum of 50 muscle fiber bundles per chick were analyzed for SDH mean intensity using the same software. The scale for mean intensity ranged from 0 (black or the most intense staining) to 250 (white or the least intense staining).
# [5] = 250, 500 mM or 1 M NR, hatched chicks
# [6] = 250 and 500 mM NR, hatched chicks
smiles,measurement,setting,value
"NC(=O)c1ccc[n+]([C@@H]2O[C@H](CO)[C@@H](O)[C@H]2O)c1 [Nicotinamide riboside, nicotinamide riboside]",Loin eye area (LEA) vs 0 mg/kg,growing pigs [1]; 15 mg/kg BW oral daily,did not differ
same,Better ADG compared to pigs in the other two treatments (numerical trend),growing pigs [1]; 30 mg/kg BW oral daily,4.4%
same,Larger loin eyes than pigs fed 0 mg/kg NR,growing pigs [1]; 30 mg/kg BW oral daily,52%
same,Larger loin eyes than pigs fed 15 mg/kg NR,growing pigs [1]; 30 mg/kg BW oral daily,48%
same,Visual panel discoloration scores between treatments,"growing pigs [2]; 0, 15 and 30 mg/kg, days 1, 4 and 5 of display",did not differ
same,Less surface metmyoglobin accumulation than 0 mg/kg chops (tendency),"growing pigs [2]; 15 mg/kg BW, 7 days, LL chops, entire 6-day display",9%
same,Greater discoloration score of 0 mg/kg chops than NR chops,growing pigs [2]; 15 mg/kg,41%
same,Less discoloration than 0 mg/kg chops (tendency),"growing pigs [2]; 15 mg/kg, entire 6-day study",27%
same,More MRA than 0 mg/kg chops (tendency),"growing pigs [2]; 15 mg/kg, over the entire study",42%
same,Less surface metmyoglobin than 0 mg/kg chops,"growing pigs [2]; 30 mg/kg BW, 7 days, LL chops, entire 6-day display",14%
same,Greater discoloration score of 0 mg/kg chops than NR chops,growing pigs [2]; 30 mg/kg,39%
same,Less surface discoloration than 0 mg/kg chops,"growing pigs [2]; 30 mg/kg, entire 6-day study",30%
same,More metmyoglobin reducing ability (MRA) than 0 mg/kg chops,"growing pigs [2]; 30 mg/kg, over the entire study",64%
same,Surface discoloration of 0 mg/kg chops vs 15 and 30 mg/kg chops,growing pigs [2]; days 2 and 3 of display,tended to have more surface discoloration
same,"Ran farther (distance) than unsupplemented barrows, numerically",finished market barrows,16%
same,"Ran longer (time to subjective fatigue) than unsupplemented barrows, numerically",finished market barrows,19%
same,PM fiber CSA,[3]; 250 mM NR in ovo at d 10,did not affect
same,Muscle fiber density vs saline in the albumen,[3]; 250 mM NR into albumen,not differ
same,Increase of PM fiber density,[3]; 250 mM NR into the yolk sac,45%
same,Muscle fiber density vs saline in the yolk,[3]; 250 mM NR into yolk,more
same,Increase of satellite cell density compared to control,"[4]; 250 mM NR, at hatching",73%
same,Satellite cell density vs control chicks,"[4]; 250 mM NR, hatched chicks",greater
same,Average increase of satellite cell density compared to control,"[4]; 500 mM and 1 M NR, at hatching",116%
same,Satellite cell density vs 0 and 250 mM treatments,"[4]; 500 mM or 1 M NR, hatched chicks",greater satellite cell density
same,Increase of muscle fiber density compared to control chicks,"[4]; 1 M NR, hatched chicks",75%
same,Muscle fiber density vs all other treatments,"[4]; 1 M NR, hatched chicks",greater muscle fiber density
same,Muscle fiber CSA,[4]; [5],no treatment effect
same,Number of satellite cells per muscle fiber,[4]; [5],no treatment effect
same,Increase of muscle fiber density compared to control chicks (average),[4]; [6],34%
same,Muscle fiber density vs control chicks,[4]; [6],greater muscle fiber density
